Measurements: US20100184699A1, “Peptide Derived From Prostate-Related Protein As Cancer Vaccine Candidate For Prostate Cancer Patient Who Is Positive For Hla-A3 Super-Type Allele Molecule” (priority 2005, published 2010)
Where “and” joins values, the source holds several entries; their conditions need not be identical. Identical values can stand only once. Like-named read-outs stand apart in the source and are kept apart here.

Legend:
[1] = test system: peptide-specific IgG in plasma of prostate cancer patients and healthy donors; test: Detection of peptide-specific IgG in plasma by ELISA; format: binding, human; conditions: for IgG reactive to peptide in plasma: 1:100-diluted plasma; for frequency of detection of peptide-reactive IgG: plasma of prostate cancer patients, compared within PSA, PAP or PSMA peptides
[2] = test system: C1R-A11, -A31 or -A33 cells pulsed with corresponding peptide; test: Induction of peptide-specific CTLs from PBMCs (IFN-γ ELISA); format: cell-based, human; conditions: for IFN-γ production, HIV peptide background subtracted: day 15, significant values only
[3] = Prostate cancer patient 10, A11
[4] = Prostate cancer patient 19, A33
[5] = Prostate cancer patient 12, A11
[6] = Prostate cancer patient 14, A33
[7] = Prostate cancer patient 17, A33
[8] = Prostate cancer patient 20, A33

Substance	IgG reactive to peptide in plasma, Total (positive/tested) ([1]; Healthy donors)	IgG reactive to peptide in plasma ([1]; Prostate cancer patient 8, A11)	IgG reactive to peptide in plasma ([1]; Prostate cancer patient 9, A11)	IgG reactive to peptide in plasma [1, 3]	IgG reactive to peptide in plasma [1, 4]	IgG reactive to peptide in plasma, Total (positive/tested) ([1]; Prostate cancer patients)	frequency of detection of peptide-reactive IgG [1]	Total (positive / tested) [2]	IgG reactive to peptide in plasma ([1]; Prostate cancer patient 4, A31)	IgG reactive to peptide in plasma ([1]; Prostate cancer patient 5, A31)	IgG reactive to peptide in plasma ([1]; Prostate cancer patient 6, A31)	IgG reactive to peptide in plasma [1, 5]	IgG reactive to peptide in plasma [1, 6]	IgG reactive to peptide in plasma [1, 7]	IgG reactive to peptide in plasma [1, 8]	other results
SLLKNRFLR (PSA 104-112) [PSA-derived peptide]	0/9	+ (IgG reactive to a corresponding peptide was judged to be positive when a difference of the optical density (OD) in a 1:100-diluted plasma was more than 100)	+ (IgG reactive to a corresponding peptide was judged to be positive when a difference of the optical density (OD) in a 1:100-diluted plasma was more than 100)	+ (IgG reactive to a corresponding peptide was judged to be positive when a difference of the optical density (OD) in a 1:100-diluted plasma was more than 100)	+ (IgG reactive to a corresponding peptide was judged to be positive when a difference of the optical density (OD) in a 1:100-diluted plasma was more than 100)	5/20	more frequently	3/13 and 1/9	–	–	–	–	–	–	–	IgG reactive to peptide in plasma ([1]; Prostate cancer patient 3, A31): + (IgG reactive to a corresponding peptide was judged to be positive when a difference of the optical density (OD) in a 1:100-diluted plasma was more than 100); IgG reactive to peptide in plasma ([1]; Prostate cancer patient 16, A33): + (IgG reactive to a corresponding peptide was judged to be positive when a difference of the optical density (OD) in a 1:100-diluted plasma was more than 100)
EIASKFSER [PSMA 641-649]	1/9	+ (IgG reactive to a corresponding peptide was judged to be positive when a difference of the optical density (OD) in a 1:100-diluted plasma was more than 100)	+ (IgG reactive to a corresponding peptide was judged to be positive when a difference of the optical density (OD) in a 1:100-diluted plasma was more than 100)	+ (IgG reactive to a corresponding peptide was judged to be positive when a difference of the optical density (OD) in a 1:100-diluted plasma was more than 100)	+ (IgG reactive to a corresponding peptide was judged to be positive when a difference of the optical density (OD) in a 1:100-diluted plasma was more than 100)	13/20	more frequently	1/13 and 2/9	+ (IgG reactive to a corresponding peptide was judged to be positive when a difference of the optical density (OD) in a 1:100-diluted plasma was more than 100)	+ (IgG reactive to a corresponding peptide was judged to be positive when a difference of the optical density (OD) in a 1:100-diluted plasma was more than 100)	+ (IgG reactive to a corresponding peptide was judged to be positive when a difference of the optical density (OD) in a 1:100-diluted plasma was more than 100)	+ (IgG reactive to a corresponding peptide was judged to be positive when a difference of the optical density (OD) in a 1:100-diluted plasma was more than 100)	+ (IgG reactive to a corresponding peptide was judged to be positive when a difference of the optical density (OD) in a 1:100-diluted plasma was more than 100)	+ (IgG reactive to a corresponding peptide was judged to be positive when a difference of the optical density (OD) in a 1:100-diluted plasma was more than 100)	+ (IgG reactive to a corresponding peptide was judged to be positive when a difference of the optical density (OD) in a 1:100-diluted plasma was more than 100)	IgG reactive to peptide in plasma ([1]; Healthy donor 9, A11): + (IgG reactive to a corresponding peptide was judged to be positive when a difference of the optical density (OD) in a 1:100-diluted plasma was more than 100); IgG reactive to peptide in plasma ([1]; Prostate cancer patient 13, A11): + (IgG reactive to a corresponding peptide was judged to be positive when a difference of the optical density (OD) in a 1:100-diluted plasma was more than 100); IgG reactive to peptide in plasma ([1]; Prostate cancer patient 18, A33): + (IgG reactive to a corresponding peptide was judged to be positive when a difference of the optical density (OD) in a 1:100-diluted plasma was more than 100)
LLGPGRPYR (TRP2-derived peptide) [reference compound]	–	–	–	–	–	–	–	–	–	–	–	–	–	–	–	IFN-γ production, HIV peptide background subtracted ([2]; healthy donor 1, A31): 143 pg/mL; IFN-γ production, HIV peptide background subtracted ([2]; healthy donor 4, A31): 180 pg/mL; IFN-γ production, HIV peptide background subtracted ([2]; healthy donor 6, A33): 90 pg/mL; IFN-γ production, HIV peptide background subtracted ([2]; healthy donor 9, A11): 182 pg/mL; IFN-γ production, HIV peptide background subtracted ([2]; healthy donor 10, A11): 207 pg/mL; IFN-γ production, HIV peptide background subtracted ([2]; healthy donor 14, A11): 94 pg/mL; Total (positive / tested) ([2]; healthy donors): 6/9; IFN-γ production, HIV peptide background subtracted ([2]; prostate cancer patient 9, A11): 155 pg/mL; IFN-γ production, HIV peptide background subtracted ([2]; prostate cancer patient 15, A33): 292 pg/mL; IFN-γ production, HIV peptide background subtracted ([2]; prostate cancer patient 17, A33): 1093 pg/mL; IFN-γ production, HIV peptide background subtracted ([2]; prostate cancer patient 19, A33): 115 pg/mL; IFN-γ production, HIV peptide background subtracted ([2]; prostate cancer patient 22, A31): 115 pg/mL; Total (positive / tested) ([2]; prostate cancer patients): 5/13
NVKNLYEKVK (Flu-derived peptide) [reference compound]	–	–	–	–	–	–	–	8/13 and 5/9	–	–	–	–	–	–	–	–
EYFVEMYYR (PAP 324-332) [PAP-derived peptide]	0/9	–	–	–	–	1/20	–	–	–	–	–	–	+ (IgG reactive to a corresponding peptide was judged to be positive when a difference of the optical density (OD) in a 1:100-diluted plasma was more than 100)	–	–	–
PSMA 456-463 (IEGNYTLR; UniProt Q04609 456-463, looked up, fragment)	0/9	–	+ (IgG reactive to a corresponding peptide was judged to be positive when a difference of the optical density (OD) in a 1:100-diluted plasma was more than 100)	–	+ (IgG reactive to a corresponding peptide was judged to be positive when a difference of the optical density (OD) in a 1:100-diluted plasma was more than 100)	9/20	–	–	+ (IgG reactive to a corresponding peptide was judged to be positive when a difference of the optical density (OD) in a 1:100-diluted plasma was more than 100)	+ (IgG reactive to a corresponding peptide was judged to be positive when a difference of the optical density (OD) in a 1:100-diluted plasma was more than 100)	+ (IgG reactive to a corresponding peptide was judged to be positive when a difference of the optical density (OD) in a 1:100-diluted plasma was more than 100)	+ (IgG reactive to a corresponding peptide was judged to be positive when a difference of the optical density (OD) in a 1:100-diluted plasma was more than 100)	+ (IgG reactive to a corresponding peptide was judged to be positive when a difference of the optical density (OD) in a 1:100-diluted plasma was more than 100)	+ (IgG reactive to a corresponding peptide was judged to be positive when a difference of the optical density (OD) in a 1:100-diluted plasma was more than 100)	+ (IgG reactive to a corresponding peptide was judged to be positive when a difference of the optical density (OD) in a 1:100-diluted plasma was more than 100)	–
